Results reported in US20040138199A1, “Benzoxazines and derivatives thereof as therapeutic agents” (priority 2002, published 2004).

Molecular target: T1, p101/p110γ protein (PI3Kγ) (Homo sapiens, UniProt P48736)
T1 construct: HA; made in house; host or cells: Spodoptera frugiperda (Sf9) cells, baculovirus coinfection
Experiment: PI3Kγ In Vitro Kinase Assay
Format: biochemical
Details: purified recombinant p101/p110γ with G protein β1/γ2 subunits; 20 μM ATP, 25 μM PIP2; 20 minutes at room temperature; radioactive PIP3 readout
Summary of the method: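 Baculovirus/Sf9-expressed p101/p110γ (~2.7 nM) with G protein β1/γ2, 20 μM ATP plus [γ-32P]ATP, PIP2/PE micelles (25 μM PIP2, 300 μM PE, 10 mM MgCl2) in HEPES buffer. Reaction 20 min at room temperature, stopped with H3PO4; radiolabelled PIP3 counted on filters to derive IC50 (μM).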

T1 sequence (P48736 whole entry, species assumed): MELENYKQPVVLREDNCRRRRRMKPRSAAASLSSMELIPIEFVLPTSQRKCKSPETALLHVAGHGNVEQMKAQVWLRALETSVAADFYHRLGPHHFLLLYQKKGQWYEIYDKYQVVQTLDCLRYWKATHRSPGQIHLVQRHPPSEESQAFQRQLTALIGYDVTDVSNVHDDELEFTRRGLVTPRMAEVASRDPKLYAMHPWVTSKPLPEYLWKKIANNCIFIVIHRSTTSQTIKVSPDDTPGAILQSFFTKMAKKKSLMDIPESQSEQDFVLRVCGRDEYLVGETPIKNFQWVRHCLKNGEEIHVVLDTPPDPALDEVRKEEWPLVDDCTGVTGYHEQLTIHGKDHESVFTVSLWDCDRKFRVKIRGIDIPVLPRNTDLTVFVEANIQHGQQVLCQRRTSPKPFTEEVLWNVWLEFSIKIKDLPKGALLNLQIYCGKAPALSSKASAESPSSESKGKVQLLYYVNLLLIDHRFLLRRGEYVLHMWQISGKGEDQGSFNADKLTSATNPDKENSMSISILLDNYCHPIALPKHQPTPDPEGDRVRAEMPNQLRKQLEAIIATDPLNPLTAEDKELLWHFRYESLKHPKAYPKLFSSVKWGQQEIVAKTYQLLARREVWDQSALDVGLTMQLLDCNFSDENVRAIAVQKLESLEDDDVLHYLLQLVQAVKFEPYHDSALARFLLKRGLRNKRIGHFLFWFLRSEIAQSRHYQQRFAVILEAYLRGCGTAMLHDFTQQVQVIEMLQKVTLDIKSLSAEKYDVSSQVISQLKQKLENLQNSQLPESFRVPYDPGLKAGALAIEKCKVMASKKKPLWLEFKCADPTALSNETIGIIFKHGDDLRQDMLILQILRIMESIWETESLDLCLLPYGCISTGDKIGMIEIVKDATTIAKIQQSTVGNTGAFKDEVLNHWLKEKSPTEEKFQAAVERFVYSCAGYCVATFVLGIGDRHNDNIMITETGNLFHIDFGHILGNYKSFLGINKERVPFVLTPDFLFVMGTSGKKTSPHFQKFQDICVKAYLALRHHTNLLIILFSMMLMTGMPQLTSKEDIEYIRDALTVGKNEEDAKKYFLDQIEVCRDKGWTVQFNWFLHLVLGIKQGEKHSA
T1 sequence (Q8WYR1 whole entry partner, species assumed): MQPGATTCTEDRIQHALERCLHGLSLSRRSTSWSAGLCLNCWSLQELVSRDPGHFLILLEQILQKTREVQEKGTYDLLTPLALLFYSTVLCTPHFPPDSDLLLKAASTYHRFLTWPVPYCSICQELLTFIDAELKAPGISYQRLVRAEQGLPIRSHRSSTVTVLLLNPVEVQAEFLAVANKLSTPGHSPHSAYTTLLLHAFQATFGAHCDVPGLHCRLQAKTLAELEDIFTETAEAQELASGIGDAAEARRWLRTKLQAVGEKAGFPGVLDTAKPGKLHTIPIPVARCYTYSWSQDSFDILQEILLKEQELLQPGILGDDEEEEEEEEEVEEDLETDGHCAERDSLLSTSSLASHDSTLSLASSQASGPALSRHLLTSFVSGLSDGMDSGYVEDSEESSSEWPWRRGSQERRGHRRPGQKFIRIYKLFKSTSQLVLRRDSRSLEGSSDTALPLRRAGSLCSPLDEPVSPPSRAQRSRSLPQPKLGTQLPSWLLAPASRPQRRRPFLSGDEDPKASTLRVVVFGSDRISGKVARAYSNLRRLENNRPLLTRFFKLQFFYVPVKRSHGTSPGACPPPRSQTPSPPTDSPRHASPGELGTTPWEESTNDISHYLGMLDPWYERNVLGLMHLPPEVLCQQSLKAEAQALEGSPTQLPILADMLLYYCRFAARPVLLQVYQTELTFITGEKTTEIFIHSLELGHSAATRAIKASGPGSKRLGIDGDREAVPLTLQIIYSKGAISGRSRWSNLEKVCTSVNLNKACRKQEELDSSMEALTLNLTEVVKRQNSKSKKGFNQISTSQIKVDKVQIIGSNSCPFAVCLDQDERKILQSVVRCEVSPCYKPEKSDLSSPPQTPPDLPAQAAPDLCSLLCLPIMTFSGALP

IC50 [nM]	Molecule
90	CC1CCCCC1C(=O)N1CCOc2ccc(C=C3SC(=S)NC3=O)cc21 (stereo not shown) [Example 91, 5-[4-(2-Methyl-cyclohexanecarbonyl)-3,4-dihydro-2H-benzo[1,4]oxazin-6-ethylene]-2-thioxo-thiazolidin-4-one]
1910	O=C1NC(=S)SC1=Cc1ccc2c(c1)N(C(=O)c1cccnc1)CCCO2 [Example 117, 5-[9-(Pyridine-3-carbonyl)-6,7,8,9-tetrahydro-5-oxa-9-aza-benzocyclohepten-2-ylmethylene]-2-thioxo-thiazolidin-4-one]
174	CS(=O)(=O)c1ccc(C(=O)N2CCOc3ccc(C=C4SC(=S)NC4=O)cc32)cc1 [Example 72]
115	Cc1cc(C(=O)N2CCOc3ccc(C=C4SC(=S)NC4=O)cc32)no1 [Example 52, 5-[4-(5-Methyl-isoxazole-3-carbonyl)-3,4-dihydro-2H-1,4-benzoxazin-6-ylmethylene]-2-thioxo-thiazolidin-4-one]
1030	CC(C(=O)N1CCOc2ccc(C=C3SC(=S)NC3=O)cc21)C(C)(C)C (stereo not shown) [Example 90, 2-Thioxo-5-[4-(2,3,3-trimethyl-butyryl)-3,4-dihydro-2H-benzo[1,4]oxazin-6-ethylene]-2-thioxo-thiazolidin-4-one]
5	O=C1NC(=S)SC1=Cc1ccc2c(c1)N(C(=O)Nc1cccc(C(F)(F)F)c1)CCO2 [Example 55, 6-(4-Oxo-2-thioxo-thiazolidin-5-ylidenemethyl)-2,3-dihydro-1,4-benzoxazine-4-carboxylic acid (3-trifluoromethyl-phenyl)-amide]

More lines, now with the values behind:

Molecule	IC50 [nM]
O=C1NC(=S)SC1=Cc1ccc2c(c1)N(C(=O)c1ccncc1)CCO2 [Example 12]	410
O=C1NC(=S)SC1=Cc1ccc2c(c1)N(C(=O)c1cccs1)CCO2 [Example 42, 5-[4-(Thiophene-2-carbonyl)-3,4-dihydro-2H-1,4-benzoxazin-6-ylmethylene]-2-thioxo-thiazolidin-4-one]	150
CC(C)(C)c1cc(CN2CCOc3ccc(C=C4SC(=S)NC4=O)cc32)cc(C(C)(C)C)c1 [Example 5, 5[4-(3,5-Di-tert-butyl-benzyl)-3,4-dihydro-2H-benzo[1,4]oxazine-6-ylmethylene]-2-thioxo-thiazolidin-4-one]	1870
O=C1NC(=S)SC1=Cc1ccc2c(c1)N(C(=O)c1cc(F)cc(F)c1)CCO2 [Example 46, 5-[4-(3,5-Difluoro-benzoyl)-3,4-dihydro-2H-1,4-benzoxazin-6-ylmethylene]-2-thioxo-thiazolidin-4-one]	372
O=C1NC(=S)SC1=Cc1ccc2c(c1)N(C(=O)Cc1cccs1)CCO2 [Example 35, 5-[4-(2-Thiophen-2-yl-acetyl)-3,4-dihydro-2H-1,4-benzoxazin-6-ylmethylene]-2-thioxo-thiazolidin-4-one]	36
2-[2-(4-Oxo-2-thioxo-thiazolidin-5-ylidenemethyl)-7,8-dihydro-6H-5-oxa-9-aza-benzocycloheptene-9-carbonyl]-anthraquinone [Example 127]	4990
5-[9-(3-Phenyl-acryloyl)-6,7,8,9-tetrahydro-5-oxa-9-aza-benzocyclohepten-2-ylmethylene]-2-thioxo-thiazolidin-4-one [Example 115]	1520
COC(=O)c1ccc(OC(=O)N2CCOc3ccc(C=C4SC(=S)NC4=O)cc32)cc1 [Example 50, 6-(4-Oxo-2-thioxo-thiazolidin-5-ylidenemethyl)-2,3-dihydro-1,4-benzoxazine-4-carboxylic acid 4-methoxycarbonyl-phenyl ester]	7
O=C1NC(=S)SC1=Cc1ccc2c(c1)N(C(=O)c1cnc3ccccc3n1)CCO2 [Example 43, 5-[4-(Quinoxaline-2-carbonyl)-3,4-dihydro-2H-1,4-benzoxazin-6-ylmethylene]-2-thioxo-thiazolidin-4-one]	565
Cc1ccc(OC(=O)N2CCOc3ccc(C=C4SC(=S)NC4=O)cc32)cc1 [Example 18, 6-(4-Oxo-2-thioxo-thiazolidin-5-ylidenemethyl)-2,3-dihydro-1,4-benzoxazine-4-carboxylic acid p-tolyl ester]	4
